In patent publication US5885985A, “Guanidine derivatives useful in therapy” (priority 1993, dated 1999):
Counter-ions that a name gives are not always drawn.

Experiments:
[1] = biological target: T1, endothelial isoform of nitric oxide synthetase (Homo sapiens, UniProt P29474); test: Screen for Endothelial Nitric Oxide Synthase Inhibition Activity; type: biochemical
T1 construct: Enzyme may be isolated from human umbilical vein endothelial cells (HUVECs); host or cells: human umbilical vein endothelial cells (HUVECs), CHAPS-solubilised particulate fraction
T1 sequence (P29474 2-1203): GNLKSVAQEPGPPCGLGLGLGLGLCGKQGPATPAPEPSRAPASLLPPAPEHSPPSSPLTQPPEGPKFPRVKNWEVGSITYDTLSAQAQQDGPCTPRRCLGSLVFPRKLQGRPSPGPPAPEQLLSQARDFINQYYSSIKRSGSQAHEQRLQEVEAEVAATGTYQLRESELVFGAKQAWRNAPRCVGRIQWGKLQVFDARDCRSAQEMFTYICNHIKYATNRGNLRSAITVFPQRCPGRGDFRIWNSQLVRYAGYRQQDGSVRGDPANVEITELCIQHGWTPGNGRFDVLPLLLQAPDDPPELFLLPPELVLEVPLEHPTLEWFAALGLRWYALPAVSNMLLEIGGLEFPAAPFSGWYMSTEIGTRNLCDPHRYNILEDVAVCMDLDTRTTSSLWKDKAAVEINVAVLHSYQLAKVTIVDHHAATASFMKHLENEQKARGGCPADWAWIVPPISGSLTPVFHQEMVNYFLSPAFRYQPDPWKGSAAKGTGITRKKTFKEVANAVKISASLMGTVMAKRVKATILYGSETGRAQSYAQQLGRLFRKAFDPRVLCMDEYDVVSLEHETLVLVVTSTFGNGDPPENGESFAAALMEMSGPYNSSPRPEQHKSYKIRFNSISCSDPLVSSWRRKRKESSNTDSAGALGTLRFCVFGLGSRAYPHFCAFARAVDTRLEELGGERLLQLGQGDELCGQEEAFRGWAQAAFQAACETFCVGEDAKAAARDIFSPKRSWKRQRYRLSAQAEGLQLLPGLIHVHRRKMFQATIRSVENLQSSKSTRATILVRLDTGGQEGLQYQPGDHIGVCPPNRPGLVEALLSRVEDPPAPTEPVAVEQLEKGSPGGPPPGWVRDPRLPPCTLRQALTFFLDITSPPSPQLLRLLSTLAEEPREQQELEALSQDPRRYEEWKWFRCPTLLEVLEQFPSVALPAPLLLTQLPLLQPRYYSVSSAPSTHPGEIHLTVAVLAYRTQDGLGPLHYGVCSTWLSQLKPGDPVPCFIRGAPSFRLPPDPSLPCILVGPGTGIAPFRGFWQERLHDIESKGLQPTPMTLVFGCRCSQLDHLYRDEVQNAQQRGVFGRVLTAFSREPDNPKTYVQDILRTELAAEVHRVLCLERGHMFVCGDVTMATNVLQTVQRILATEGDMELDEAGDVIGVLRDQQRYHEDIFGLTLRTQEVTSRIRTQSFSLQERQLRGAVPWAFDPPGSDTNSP
Experimental: 3) Screen for Endothelial Nitric Oxide Synthase Inhibition Activity
HUVECs were purchased from Clonetics Corp (San Diego, Calif., USA) and cultured to confluency. Cells can be maintained to passage 35-40 without significant loss of yield of nitric oxide synthase. When cells reach confluency, they are resuspended in Dulbecco's phosphate buffered saline, centrifuged at 800 rpm for 10 mins, the cell pellet homogenised in ice-cold 50 mM Tris-HCl, 1 mM EDTA, 10% glycerol, 1 mM phenylmethylsulphonylfluoride, 2 μM leupeptin at pH 4.2. Following centrifugation at 34,000 rpm for 60 mins, the pellet is solubilised in the homogenisation buffer which also contains 20 mM CHAPS. After a 30 min incubation on ice, the suspension is centrifuged at 34,000 rpm for 30 mins. The resulting supernatant is stored at -80° C. until use. […]
Labelled L-citrulline is separated from labelled L-arginine by chromatography over a Dowex AG-50W-X8 200-400 mesh column. […] The L-citruiline is then quantified by scintillation counting. […]

[2] = biological target: T2, neuronal isoform of nitric oxide synthetase (Rattus norvegicus, UniProt P29476); test: biochemical; conditions: enzyme from rat hippocampus or cerebellum; 22° C., 10 minutes; read-out: IC50 in the screen for activity against the neuronal isoform of nitric oxide synthetase
T2 construct: Enzyme was isolated from rat hippocampus or cerebellum; from tissue; host or cells: hippocampus or cerebellum of male Sprague-Dawley rat (20,000 g supernatant)
T2 sequence (P29476 whole entry, canonical isoform): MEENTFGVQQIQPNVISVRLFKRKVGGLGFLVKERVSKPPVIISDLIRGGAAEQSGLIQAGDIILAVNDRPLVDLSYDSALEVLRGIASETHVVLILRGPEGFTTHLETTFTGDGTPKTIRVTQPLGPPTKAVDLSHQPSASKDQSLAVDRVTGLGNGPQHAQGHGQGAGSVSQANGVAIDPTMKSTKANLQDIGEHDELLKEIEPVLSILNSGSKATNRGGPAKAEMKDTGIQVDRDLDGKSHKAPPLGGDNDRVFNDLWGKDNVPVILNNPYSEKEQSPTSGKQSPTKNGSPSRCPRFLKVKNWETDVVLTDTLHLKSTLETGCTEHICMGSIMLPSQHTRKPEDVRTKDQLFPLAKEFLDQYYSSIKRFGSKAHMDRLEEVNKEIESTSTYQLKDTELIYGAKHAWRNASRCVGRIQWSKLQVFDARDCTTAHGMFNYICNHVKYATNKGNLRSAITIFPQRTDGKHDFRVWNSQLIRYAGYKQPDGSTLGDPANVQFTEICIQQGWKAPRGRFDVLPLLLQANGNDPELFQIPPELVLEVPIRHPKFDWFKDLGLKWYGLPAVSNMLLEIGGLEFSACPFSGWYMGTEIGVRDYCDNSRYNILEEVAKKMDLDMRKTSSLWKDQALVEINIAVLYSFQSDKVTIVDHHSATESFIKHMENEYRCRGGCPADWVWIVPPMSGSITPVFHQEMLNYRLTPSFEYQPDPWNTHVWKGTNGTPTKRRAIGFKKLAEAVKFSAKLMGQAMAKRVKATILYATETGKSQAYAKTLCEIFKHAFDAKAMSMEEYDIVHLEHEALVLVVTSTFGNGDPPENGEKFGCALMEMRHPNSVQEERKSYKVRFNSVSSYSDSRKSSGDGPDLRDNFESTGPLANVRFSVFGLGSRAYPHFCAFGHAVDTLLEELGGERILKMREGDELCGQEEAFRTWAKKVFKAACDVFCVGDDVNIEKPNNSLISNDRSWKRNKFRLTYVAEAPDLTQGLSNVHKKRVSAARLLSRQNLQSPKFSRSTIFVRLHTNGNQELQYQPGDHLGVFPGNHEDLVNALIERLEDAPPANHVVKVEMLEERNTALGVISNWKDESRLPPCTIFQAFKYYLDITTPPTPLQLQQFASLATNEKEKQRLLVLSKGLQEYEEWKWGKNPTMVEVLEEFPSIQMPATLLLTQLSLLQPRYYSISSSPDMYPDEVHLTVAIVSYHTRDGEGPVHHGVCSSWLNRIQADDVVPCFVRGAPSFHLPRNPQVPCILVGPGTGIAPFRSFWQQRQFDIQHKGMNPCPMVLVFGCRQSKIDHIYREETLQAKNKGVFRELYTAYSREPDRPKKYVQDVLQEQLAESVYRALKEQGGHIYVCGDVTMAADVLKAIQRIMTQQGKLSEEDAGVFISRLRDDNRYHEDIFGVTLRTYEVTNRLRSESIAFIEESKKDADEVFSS
Experimental: 1) Screen for Neuronal Nitric Oxide Synthase Inhibition Activity
Enzyme was isolated from rat hippocampus or cerebellum. The cerebellum or hippocampus of a male Sprague-Dawley rat (250-275g) is removed following CO2 anaesthesia of the animal and decapitation. Cerebellar or hippocampal supernatant is prepared by homogenisation in 50 mM Tris-HCl with 1 mM EDTA buffer (pH 7.2 at 25° C.) and centifugation for 15 minutes at 20,000 g. Residual L-arginine is removed from the supernatant by chromatography through Dowex AG-50W-X8 sodium form and hydrogen form columns successively, and further centrifugation at 1000 g for 30 seconds.
For the assay, 25 μl of the final supernatant is added to each of 12 test tubes containing 25 μl L-arginine solution (of concentration 18 μM ^1 H-L-arginine, 96 nM ^3 H-L-arginine) and either 25 μl of an assay buffer (50 mM HEPES, 1 mM EDTA, 1.5 mM CaCl2, pH 7.4) or 25 μl of test compound in the buffer at 22° C. […]
Labelled L-citrulline is separated from labelled L-arginine by chromatography over a Dowex AG-50W-X8 200-400 mesh column. […] The L-citrulline is then quantified by scintillation counting. […]

[3] = biological target: T3, macrophage isoform of nitric oxide synthetase (Mus musculus, UniProt P29477); test: Screen for Macrophage Nitric Oxide Synthase Inhibition Activity; type: biochemical; conditions: lysate of induced murine J774A-1 cells; 1 hour at room temperature; read-out: IC50 in the screen for activity against the macrophage isoform of nitric oxide synthetase
T3 construct: endogenous in cells; host or cells: murine macrophage cell line J774A-1 (from laboratories of the Imperial Cancer Research Fund), induced with LPS and IFN-gamma
From the text: The enzyme nitric oxide synthetase has a number of isoforms and compounds of formula I, or a pharmaceutically acceptable salt thereof, may be screened for nitric oxide synthetase inhibition activity by procedures based on those of Bredt and Snyder in Proc. Natl. Acad. Sci. (1990) 87, 682-685 and Forstermann et. al. (1992) Eur. J. Pharm. 225, 161-165. Nitric oxide synthetase converts ^3 H-L-arginine to ^3 H-L-citrulline which can be separated by cation exchange chromatography and quantified by liquid scintillation counting.
(2) Screen for Macrophage Nitric Oxide Synthase Inhibition Activity
Enzyme is prepared, after induction, from the cultured murine macrophage cell line J774A-1 (obtained from laboratories of the Imperial Cancer Research Fund). J774A-1 cells are cultured in Dulbecco's Modified Eagles Medium (DMEM) supplemented with 10% foetal bovine serum, 4 mM L-glutamine and antibiotics (100 units/ml penicillin G, 100 μg/ml streptomycin & 0.25 μg/ml amphotericin B). Cells are routinely grown in […] flasks containing 35 ml medium kept at 37° C. and in a humidified atmosphere containing 5% CO2.
Nitric oxide synthase is produced by cells in response to inferferon-γ(IFNγ) and lipopolysaccharide (LPS). […]
Labelled L-citrulline is separated from labelled L-arginine using Dowex AG-50W. […] After allowing the samples to dry the L-citrulline is quantified by scintillation counting. […]

Row | Structure (SMILES) | IC50 ([1]; enzyme from HUVECs, 22° C., 10 minutes, read-out: IC50 in the screen for activity against the endothelial isoform of nitric oxide synthetase) | IC50 [2] | IC50 [3] | inhibition at 1 µM ([1]; at a concentration of 1 μM, reference standard)
1 | CC(=O)Nc1cccc(NC(=N)N2CCCC2)c1 [Example 1, N-(3-((methylcarbonyl)amino)phenyl)-1-pyrrolidinecarboximidamide monohydrochloride] | > 100 µM | < 10 µM | > 100 µM | –
2 | N=C(NCCC[C@H](N)C(=O)O)N[N+](=O)[O-] [N-nitro-L-arginine, reference compound] | – | – | – | 70 to 90%
